From ChEMBL document CHEMBL3217717, “Synthesis and antiproliferative activity of novel erythromycin derivatives” (Medchemcomm, 2010) come the findings set out here.

Format in all cases: functional, cell-based
One assay concerns KB. The experiment in a line: Cytotoxicity against human KB cells assessed as growth inhibition after 48 hrs by MTT assay. For orientation: Formazan colour is commonly taken as a measure of viable cells.
A short description of assay [1]: Cytotoxicity against human SGC7901 cells assessed as growth inhibition after 48 hrs by MTT assay. The following applies: SGC-7901, 48 h.
Assay [2] in a line: Cytotoxicity against human HT1080 cells assessed as growth inhibition after 48 hrs by MTT assay. As to conditions: HT-1080, 48 h.

`CC[C@H]1OC(=O)[C@H](C)[C@@H](O[C@H]2C[C@@](C)(OC)[C@@H](O)[C@H](C)O2)[C@H](C)[C@@H](O[C@@H]2O[C@H](C)C[C@H](N(C)C(=O)CN(C)[C@H]3C[C@@H](C)O[C@@H](O[C@@H]4[C@@H](C)[C@H](O[C@H]5C[C@@](C)(OC)[C@@H](O)[C@H](C)O5)[C@@H](C)C(=O)O[C@H](CC)[C@@](C)(O)[C@H](O)[C@@H](C)C(=O)[C@H](C)C[C@@]4(C)O)[C@@H]3O)[C@H]2O)[C@](C)(OC)C[C@@H](C)C(=O)[C@H](C)[C@@H](O)[C@]1(C)O`: the values for the IC50 (in the assay with KB; in assay [1]; in assay [2]) were 27.6 µM, 65.9 µM and > 100 µM, respectively.
On the same counts, the results for `CC[C@H]1OC(=O)[C@H](C)[C@@H](O[C@H]2C[C@@](C)(OC)[C@@H](O)[C@H](C)O2)[C@H](C)[C@@H](O[C@@H]2O[C@H](C)C[C@H](N(C)CCN(C)[C@H]3C[C@@H](C)O[C@@H](O[C@@H]4[C@@H](C)[C@H](O[C@H]5C[C@@](C)(OC)[C@@H](O)[C@H](C)O5)[C@@H](C)C(=O)O[C@H](CC)[C@@](C)(O)[C@H](O)[C@@H](C)/C(=N\OCOCCOC)[C@H](C)C[C@@]4(C)O)[C@@H]3O)[C@H]2O)[C@](C)(O)C[C@@H](C)[C@H](O)[C@H](C)[C@@H](O)[C@]1(C)O` are 37.8 µM, 45.2 µM and 21.9 µM.
In the same order, the values of `CC[C@H]1OC(=O)[C@H](C)[C@@H](O[C@H]2C[C@@](C)(OC)[C@@H](O)[C@H](C)O2)[C@H](C)[C@@H](O[C@@H]2O[C@H](C)C[C@H](N(C)CCN(C)[C@H]3C[C@@H](C)O[C@@H](O[C@@H]4[C@@H](C)[C@H](O[C@H]5C[C@@](C)(OC)[C@@H](O)[C@H](C)O5)[C@@H](C)C(=O)O[C@H](CC)[C@@](C)(O)[C@H](O)[C@@H](C)/C(=N\OCc5ccccc5)[C@H](C)C[C@@]4(C)O)[C@@H]3O)[C@H]2O)[C@](C)(O)C[C@@H](C)/C(=N/OCOCCOC)[C@H](C)[C@@H](O)[C@]1(C)O` are > 100 µM, > 100 µM and > 100 µM.
For `CC[C@H]1OC(=O)[C@H](C)[C@@H](O[C@H]2C[C@@](C)(OC)[C@@H](O)[C@H](C)O2)[C@H](C)[C@@H](O[C@@H]2O[C@H](C)C[C@H](N(C)CC(=O)N(C)[C@H]3C[C@@H](C)O[C@@H](O[C@@H]4[C@@H](C)[C@H](O[C@H]5C[C@@](C)(OC)[C@@H](O)[C@H](C)O5)[C@@H](C)C(=O)O[C@H](CC)[C@@](C)(O)[C@H](O)[C@@H](C)C(=O)[C@H](C)C[C@@]4(C)O)[C@@H]3O)[C@H]2O)[C@](C)(O)C[C@@H](C)C(=O)[C@H](C)[C@@H](O)[C@]1(C)O`, the results for the IC50 (in the assay with KB; in assay [1]; in assay [2]) were > 100 µM, 26.5 µM and > 100 µM, respectively.
With `CC[C@H]1OC(=O)[C@H](C)[C@@H](O[C@H]2C[C@@](C)(OC)[C@@H](O)[C@H](C)O2)[C@H](C)[C@@H](O[C@@H]2O[C@H](C)C[C@H](N(C)CCN(C)[C@H]3C[C@@H](C)O[C@@H](O[C@@H]4[C@@H](C)[C@H](O[C@H]5C[C@@](C)(OC)[C@@H](O)[C@H](C)O5)[C@@H](C)C(=O)O[C@H](CC)[C@@](C)(O)[C@H](O)[C@@H](C)/C(=N\OCOCCOC)[C@H](C)C[C@@]4(C)O)[C@@H]3O)[C@H]2O)[C@](C)(O)C[C@@H](C)/C(=N/OCOCCOC)[C@H](C)[C@@H](O)[C@]1(C)O`, the IC50 (usually the concentration needed to halve the response being measured) in the assay on KB is 5.5 µM; in assay [1], > 100 µM; in assay [2], 3.5 µM.
As for `CC[C@H]1OC(=O)[C@H](C)[C@@H](O[C@H]2C[C@@](C)(OC)[C@@H](O)[C@H](C)O2)[C@H](C)[C@@H](O[C@@H]2O[C@H](C)C[C@H](N(C)CCN(C)[C@H]3C[C@@H](C)O[C@@H](O[C@@H]4[C@@H](C)[C@H](O[C@H]5C[C@@](C)(OC)[C@@H](O)[C@H](C)O5)[C@@H](C)C(=O)O[C@H](CC)[C@@](C)(O)[C@H](O)[C@@H](C)C(=O)[C@H](C)C[C@@]4(C)OC)[C@@H]3O)[C@H]2O)[C@](C)(OC)C[C@@H](C)C(=O)[C@H](C)[C@@H](O)[C@]1(C)O`, the IC50 with KB amounted to 17.7 µM; in assay [1], 20 µM; in assay [2], 8.1 µM.
In the same order, the values of `CC[C@H]1OC(=O)[C@H](C)[C@@H](O)[C@H](C)[C@@H](O[C@@H]2O[C@H](C)C[C@H](N(C)C(=O)CN(C)[C@H]3C[C@@H](C)O[C@@H](O[C@@H]4[C@@H](C)[C@H](O[C@H]5C[C@@](C)(OC)[C@@H](O)[C@H](C)O5)[C@@H](C)C(=O)O[C@H](CC)[C@@](C)(O)[C@H](O)[C@@H](C)/C(=N\OCOCCOC)[C@H](C)C[C@@]4(C)O)[C@@H]3O)[C@H]2O)[C@](C)(OC)C[C@@H](C)C(=O)[C@H](C)[C@@H](O)[C@]1(C)O` are > 100 µM, > 100 µM and > 100 µM.
With `CC[C@H]1OC(=O)[C@H](C)[C@@H](O[C@H]2C[C@@](C)(OC)[C@@H](O)[C@H](C)O2)[C@H](C)[C@@H](O[C@@H]2O[C@H](C)C[C@H](N(C)CCN(C)[C@H]3C[C@@H](C)O[C@@H](O[C@@H]4[C@@H](C)[C@H](O[C@H]5C[C@@](C)(OC)[C@@H](O)[C@H](C)O5)[C@@H](C)C(=O)O[C@H](CC)[C@@](C)(O)[C@H](O)[C@@H](C)C(=O)[C@H](C)C[C@@]4(C)OC)[C@@H]3O)[C@H]2O)[C@](C)(O)C[C@@H](C)[C@H](N)[C@H](C)[C@@H](O)[C@]1(C)O`, the IC50 with KB came to 26.4 µM; in assay [1], 57.8 µM; in assay [2], 17.8 µM.
In the same order, the values of `CC[C@H]1OC(=O)[C@H](C)[C@@H](O[C@H]2C[C@@](C)(OC)[C@@H](O)[C@H](C)O2)[C@H](C)[C@@H](O[C@@H]2O[C@H](C)C[C@H](N(C)CC(=O)N(C)[C@H]3C[C@@H](C)O[C@@H](O[C@@H]4[C@@H](C)[C@H](O[C@H]5C[C@@](C)(OC)[C@@H](O)[C@H](C)O5)[C@@H](C)C(=O)O[C@H](CC)[C@@](C)(O)[C@H](O)[C@@H](C)/C(=N/OCOCCOC)[C@H](C)C[C@@]4(C)O)[C@@H]3O)[C@H]2O)[C@](C)(O)C[C@@H](C)/C(=N/OCOCCOC)[C@H](C)[C@@H](O)[C@]1(C)O` are 28.7 µM, 13.3 µM and 33.4 µM.
In the same order, the values of `CC[C@H]1OC(=O)[C@H](C)[C@@H](O)[C@H](C)[C@@H](O[C@@H]2O[C@H](C)C[C@H](N(C)CCN(C)[C@H]3C[C@@H](C)O[C@@H](O[C@@H]4[C@@H](C)[C@H](O)[C@@H](C)C(=O)O[C@H](CC)[C@@](C)(O)[C@H](O)[C@@H](C)[C@@H](O)[C@H](C)C[C@@]4(C)O)[C@@H]3O)[C@H]2O)[C@](C)(O)C[C@@H](C)[C@H](O)[C@H](C)[C@@H](O)[C@]1(C)O` are > 100 µM, > 100 µM and > 100 µM.
On the same counts, the results for `CC[C@H]1OC(=O)[C@H](C)[C@@H](O[C@H]2C[C@@](C)(OC)[C@@H](O)[C@H](C)O2)[C@H](C)[C@@H](O[C@@H]2O[C@H](C)C[C@H](N(C)CC(=O)N(C)[C@H]3C[C@@H](C)O[C@@H](O[C@@H]4[C@@H](C)[C@H](O[C@H]5C[C@@](C)(OC)[C@@H](O)[C@H](C)O5)[C@@H](C)C(=O)O[C@H](CC)[C@@](C)(O)[C@H](O)[C@@H](C)C(=O)[C@H](C)C[C@@]4(C)OC)[C@@H]3O)[C@H]2O)[C@](C)(OC)C[C@@H](C)C(=O)[C@H](C)[C@@H](O)[C@]1(C)O` are > 100 µM, 16.2 µM and 30.9 µM.
In the case of `CC[C@H]1OC(=O)[C@H](C)[C@@H](O)[C@H](C)[C@@H](O[C@@H]2O[C@H](C)C[C@H](N(C)CCN(C)[C@H]3C[C@@H](C)O[C@@H](O[C@@H]4[C@@H](C)[C@H](O)[C@@H](C)C(=O)O[C@H](CC)[C@@](C)(O)[C@H](O)[C@@H](C)/C(=N\OCOCCOC)[C@H](C)C[C@@]4(C)O)[C@@H]3O)[C@H]2O)[C@](C)(O)C[C@@H](C)/C(=N/OCOCCOC)[C@H](C)[C@@H](O)[C@]1(C)O`, the IC50 (in the assay with KB; in assay [1]; in assay [2]) was > 100 µM each time.
For the molecule `CC[C@H]1OC(=O)[C@H](C)[C@@H](O)[C@H](C)[C@@H](O[C@@H]2O[C@H](C)C[C@H](N(C)CCN(C)[C@H]3C[C@@H](C)O[C@@H](O[C@@H]4[C@@H](C)[C@H](O[C@H]5C[C@@](C)(OC)[C@@H](O)[C@H](C)O5)[C@@H](C)C(=O)O[C@H](CC)[C@@](C)(O)[C@H](O)[C@@H](C)C(=O)[C@H](C)C[C@@]4(C)OC)[C@@H]3O)[C@H]2O)[C@](C)(OC)C[C@@H](C)C(=O)[C@H](C)[C@@H](O)[C@]1(C)O`, the IC50 was 97 µM in the assay with KB, > 100 µM in assay [1] and > 100 µM in assay [2].
`CC[C@H]1OC(=O)[C@H](C)[C@@H](O[C@H]2C[C@@](C)(OC)[C@@H](O)[C@H](C)O2)[C@H](C)[C@@H](O[C@@H]2O[C@H](C)C[C@H](N(C)CCN(C)[C@H]3C[C@@H](C)O[C@@H](O[C@@H]4[C@@H](C)[C@H](O[C@H]5C[C@@](C)(OC)[C@@H](O)[C@H](C)O5)[C@@H](C)C(=O)O[C@H](CC)[C@@](C)(O)[C@H](O)[C@@H](C)C(=O)[C@H](C)C[C@@]4(C)OC)[C@@H]3O)[C@H]2O)[C@](C)(O)C[C@@H](C)[C@H](O)[C@H](C)[C@@H](O)[C@]1(C)O`: the results for the IC50 (with KB; in assay [1]; in assay [2]) were 28.5 µM, 39.8 µM and 20.4 µM, respectively.
In the same order, the values of `CCCCCCCCO/N=C1/[C@H](C)C[C@@](C)(O)[C@H](O[C@@H]2O[C@H](C)C[C@H](N(C)CCN(C)[C@H]3C[C@@H](C)O[C@@H](O[C@@H]4[C@@H](C)[C@H](O[C@H]5C[C@@](C)(OC)[C@@H](O)[C@H](C)O5)[C@@H](C)C(=O)O[C@H](CC)[C@@](C)(O)[C@H](O)[C@@H](C)/C(=N\OCCCCCCCC)[C@H](C)C[C@@]4(C)O)[C@@H]3O)[C@H]2O)[C@@H](C)[C@H](O[C@H]2C[C@@](C)(OC)[C@@H](O)[C@H](C)O2)[C@@H](C)C(=O)O[C@H](CC)[C@@](C)(O)[C@H](O)[C@H]1C` are > 100 µM, > 100 µM and > 100 µM.
